The target of experiment [1] is T1, E. coli MurB (Escherichia coli, UniProt P08373). Kind of experiment: Absorbance method measuring NADPH depletion at 340 nm (MurB activity). The experiment is classed as biochemical. How it is done:
(§1) The inhibition of E. coli MurB by (2R)-2-{2-[3-(4-tert-butylphenoxy)phenyl]-4-oxo-1,3-thiazolidin-3-yl} hexanoic acid, a 4-thiazolidinone compound, was studied by the same method. Reactions were carried in 50 mM Tris, pH 8.0, 1 mM TCEP, 20 mM KCl, 0.005% Triton, in the presence of 100 μM NADPH and 60 μM EP. The concentration of MurB was 1.3 nM.
Other kinetic measurements were performed to further characterize E. coli MurB by ITC.

Experiment [2] has as its target T1, E. coli MurB. Kind of experiment: ITC assay of E. coli MurB activity. The experiment is classed as biochemical. The method, then:
E. coli MurB was diluted in assay buffer (50 mM Tris pH 8.0, 1 mM TCEP, 20 mM KCl, 0.005% Triton X-100) to a final concentration of 1.3 nM. The buffer contained the MurB substrates at the following concentrations in the ITC test cell: 100 μM NADPH and 60 μM UDP-GlcNAc-EP. DMSO was also added at a final concentration of 2.7% (v/v).
as §1

Experiment [3] concerns the target T2, E. coli GyrAB (Escherichia coli, UniProt P0AES6). Kind of experiment: ITC assay of E. coli GyrAB ATPase activity. The experiment is classed as biochemical. The note with it: read-out: Ki, ADP. How it is done:
The titration was started manually after the DP signal was stabilized.
The data were analyzed as follows: the power value (μcal/sec) after each injection is subtracted from the initial power value (before any injection occurs).
On the technique in general: Isothermal titration calorimetry measures the heat released or taken up as one component is titrated into another.

Experiment [4] has as its target T2, E. coli GyrAB. Kind of experiment: Independent assay of GyrAB enzyme activity using phosphate detection. The experiment is classed as biochemical. Particulars: read-out: Ki, ADP.
Experiment [5] has as its target T3, E. coli MurC (Escherichia coli, UniProt P17952). Kind of experiment: biochemical. How it is done: E. coli MurC was diluted in assay buffer (50 mM Tris pH 8.0, 1 mM Tris (2-carboxyethyl) phosphine hydrochloride (TCEP), 0.01% (w/v) Triton X-100, 20 mM ammonium formate) to a final concentration of 10 nM. […] The titration was started manually after the DP signal was stabilized. A total of 16 injections (2, 2, 4, 4, 4, 4, 8, 8, 16, 16, 32, 32, 32, 32, 32, and 32 μl) were performed. Time spacing in between injections was set at 120 sec for all injections.
All the reactions were carried in 50 mM Tris, pH 8.0, 1 mM TCEP, 0.01% (w/v) Triton, and 20 mM ammonium formate. The final concentration of E. coli MurC was 10 nM. […] The reaction was initiated with the addition of MurC and placed into the test cell. AMP-PCP was dissolved in the buffer described above at a final concentration of 2.8 mM and placed into the titration syringe.

Experiment [6] has as its target T3, E. coli MurC. Kind of experiment: biochemical. The source holds these as a separate data set.

Each structure is given as a SMILES string. Where “and” joins values, the source holds several entries; their conditions need not be identical. Identical values can stand only once. Like-named read-outs stand apart in the source and are kept apart here.

As usually defined, the IC50 is the midpoint of a concentration-inhibition curve. The term Ki denotes the equilibrium dissociation constant of an inhibitor or competing ligand from its target. Usually Km stands for the substrate concentration at which the rate is half of its maximum.

T1 sequence (P08373 whole entry): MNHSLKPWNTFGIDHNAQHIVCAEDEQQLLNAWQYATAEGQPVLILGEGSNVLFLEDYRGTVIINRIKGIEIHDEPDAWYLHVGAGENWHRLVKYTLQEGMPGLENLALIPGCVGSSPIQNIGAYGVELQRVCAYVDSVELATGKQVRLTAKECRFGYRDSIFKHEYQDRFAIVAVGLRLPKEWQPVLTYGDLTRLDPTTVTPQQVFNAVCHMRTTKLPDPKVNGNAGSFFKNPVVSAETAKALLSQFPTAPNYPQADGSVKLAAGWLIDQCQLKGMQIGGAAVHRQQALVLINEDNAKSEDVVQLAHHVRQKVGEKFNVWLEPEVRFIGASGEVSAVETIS
T3 sequence (P17952 whole entry): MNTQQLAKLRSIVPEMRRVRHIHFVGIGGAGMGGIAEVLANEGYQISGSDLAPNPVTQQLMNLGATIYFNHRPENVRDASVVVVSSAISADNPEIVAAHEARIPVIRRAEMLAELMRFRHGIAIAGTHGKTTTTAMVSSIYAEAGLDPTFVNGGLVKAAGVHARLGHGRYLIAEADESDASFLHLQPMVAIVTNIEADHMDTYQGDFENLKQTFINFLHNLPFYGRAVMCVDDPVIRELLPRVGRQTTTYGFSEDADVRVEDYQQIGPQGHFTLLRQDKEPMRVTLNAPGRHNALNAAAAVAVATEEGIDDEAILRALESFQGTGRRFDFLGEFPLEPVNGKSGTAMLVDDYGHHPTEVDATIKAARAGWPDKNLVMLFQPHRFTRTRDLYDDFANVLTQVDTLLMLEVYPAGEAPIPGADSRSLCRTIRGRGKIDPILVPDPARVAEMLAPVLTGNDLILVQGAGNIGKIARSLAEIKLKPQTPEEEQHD

With `CCCC[C@H](C(=O)O)N1C(=O)CSC1c1cccc(Oc2ccc(C(C)(C)C)cc2)c1` (stereo partly drawn) [4-thiazolidinone analogue, (2R)-2-{2-[3-(4-tert-butylphenoxy)phenyl]-4-oxo-1,3-thiazolidin-3-yl} hexanoic acid], the IC50 at E. coli MurB [1] (NADPH depletion at 340 nm, read-out: 4-thiazolidinone analogue IC50) is 101 µM; at E. coli MurB [2] (1.3 nM MurB, 100 μM NADPH, 60 μM UDP-GlcNAc-EP, read-out: 4-thiazolidinone analogue IC50) it was 154 µM.
Consider `Nc1ncnc2c1ncn2[C@@H]1O[C@H](COP(=O)(O)OP(=O)(O)O)[C@@H](O)[C@H]1O` [ADP], for which the Ki at E. coli GyrAB [3] and at E. coli GyrAB [4] was 18 µM throughout.
For `Nc1ncnc2c1ncn2[C@@H]1O[C@H](COP(=O)(O)OP(=O)(O)CP(=O)(O)O)[C@@H](O)[C@H]1O` [AMP-PCP, β,γ-Methyleneadenosine 5′-triphosphate], the IC50 was 27 µM on E. coli MurC [5]; 40 µM and 35 µM against E. coli MurC [6] (AMP-PCP IC50).
As to `NC(=O)C1=CN([C@@H]2O[C@H](COP(=O)(O)OP(=O)(O)OC[C@H]3O[C@@H](n4cnc5c(N)ncnc54)[C@H](OP(=O)(O)O)[C@@H]3O)[C@@H](O)[C@H]2O)C=CC1` [NADPH], the Michaelis constant (Km) at E. coli MurB [1] (read-out: KM, NADPH) was found to be 9 µM; at E. coli MurB [2] (read-out: KM, NADPH) it was 9 µM.
On to `C=C(O[C@H]1[C@H](O)[C@@H](CO)O[C@H](OP(=O)(O)OP(=O)(O)OC[C@H]2O[C@@H](n3ccc(=O)[nH]c3=O)[C@H](O)[C@@H]2O)[C@@H]1NC(C)=O)C(=O)O` [UDP-GlcNAc−EP, uridine diphosphate-GlcNAc-enolpyruvate], for which the Michaelis-Menten constant (Km) at E. coli MurB [1] (read-out: KM, UDP-GlcNAc-EP) turned out to be 6 µM; at E. coli MurB [2] (read-out: KM, UDP-GlcNAc-EP), 8 µM.
Regarding `CC(=O)N[C@H]1[C@@H](OP(=O)(O)OP(=O)(O)OC[C@H]2O[C@@H](n3ccc(=O)[nH]c3=O)[C@H](O)[C@@H]2O)O[C@H](CO)[C@@H](O)[C@@H]1O[C@H](C)C(=O)O` [UDP-MurNAc], the Km on E. coli MurC [5] (ITC, read-out: KM, UDP-MurNAc) was 21 µM; at E. coli MurC [6] (Phosphate detection, read-out: KM, UDP-MurNAc), 19 µM.

These data come from US20080145840A1 (priority 2003, published 2008).
